Patent US20060165785A1, “Method of chemically stabilizing pharmaceutical formulations with cholesterol” (priority 2005, published 2006)

Test: Chemical stability of composite particles in lactose carrier blend stored at 60° C. and 75% relative humidity for seven days
Format: physicochemical
Procedure: A 20 gram blend of 5% cholesterol coated salmeterol particles was prepared with a concetration of 0.8% w/w salmeterol base in alpha lactose monohydrate. Approximately 10 grams of alpha lactose monohydrate with target particle size of 65-85μm (Borcula, The Netherlands) was weighed into the bottom of a 120 mL amber glass jar. 0.247g of 5% cholesterol coated salmeterol HNA was added on top of the lactose and 9.77 g of lactose was added on top of the mixture. The mixture was blended using a Turbula T2F blender at 96 RPM for 5 minutes. The jar was removed from the blender and excess blend was tapped from the top of the jar. One additional blending cycle was performed for 5 minutes at 96 RPM to complete the process.
Samples of particles prepared in accordance with Example 2 above were stored in controlled atmospheric conditions of 60° C. and 75% relative humidity for seven days. The percentage of active ingredient was taken at day 0 and day 7. […] When cholesterol was included, the degradation was reduced to less than 2%.
It has been observed that micronized SX degrades at 60 ° C. and 75% relative humidity (RH) conditions when in a neat blend with lactose.

Structure (SMILES) | % Impurities of Composite Particles in 0.4% GW597901M Base/Lactose Blend, 7 Days at 60° C. and 75% RH (0.4% GW597901M base/lactose blend, 7 days at 60° C. and 75% RH) | % Impurities of Composite Particles in 0.4% GW597901M Base/Lactose Blend, Initial (0.4% GW597901M base/lactose blend, initial) | % Impurities of Composite Particles in 0.8% Salmeterol Base/Lactose Blend, 7 Days at 60° C. and 75% RH (0.8% salmeterol base/lactose blend, 7 days at 60° C. and 75% RH) | % Impurities of Composite Particles in 0.8% Salmeterol Base/Lactose Blend, 7 Days at 60° C. and 75% RH (0.8% salmeterol base/lactose blend, 7 days at 60° C. and 75% RH, listed as MIC SX from alternate study) | % Impurities of Composite Particles in 0.8% Salmeterol Base/Lactose Blend, Initial (0.8% salmeterol base/lactose blend, initial (day 0)) | drop in the amount of SX present in the formulation (degradation) at day 7 (formulation with carrier, 60° C. and 75% relative humidity, day 7 vs day 0)
NS(=O)(=O)c1cccc(CCCCOCCCCCCNC[C@H](O)c2ccc(O)c(CO)c2)c1 [Micronized GW597901M, 3-(4-{[6-({(2R)-2-hydroxy-2-[4-hydroxy-3-(hydroxymethyl)phenyl]ethyl}amino)hexyl]oxy}-butyl)benzene-sulfonamide] | 10.0% | 3.9% |  |  |  | 
OCc1cc(C(O)CNCCCCCCOCCCCc2ccccc2)ccc1O (stereo not drawn) [Micronized SX, salmeterol xinafoate] |  |  | 7.4% | 8.0% | 0.5% | 7%
